Read-outs that look alike come from different tables or passages of the source.

Series [1] has as its target T1, DYRK1B (Homo sapiens, UniProt Q9Y463). The experiment in a line: DYRK1B radiometric kinase assay with Woodtide substrate peptide. The following applies: read-out: % inhibition at 1 μM, DYRK1B. The format is biochemical.
For series [2] the following is noted: rat liver microsomes. A general note: Microsomes from liver hold many membrane-bound enzymes, among them those of drug oxidation.
A further series concerns DYRK1A. The settings on record: cited from earlier work.
The target in series [3] is T2, CLK1 (Homo sapiens, UniProt P49759). The series can be described thus: Radiometric kinase assay. Type of series: biochemical.
For series [4], the target named is T2, CLK1. The series can be described thus: Z'-LYTE kinase activity assay.
Another series deals with T3, DYRK2 (Homo sapiens, UniProt Q92630).
T3 sequence (Q92630 1-601): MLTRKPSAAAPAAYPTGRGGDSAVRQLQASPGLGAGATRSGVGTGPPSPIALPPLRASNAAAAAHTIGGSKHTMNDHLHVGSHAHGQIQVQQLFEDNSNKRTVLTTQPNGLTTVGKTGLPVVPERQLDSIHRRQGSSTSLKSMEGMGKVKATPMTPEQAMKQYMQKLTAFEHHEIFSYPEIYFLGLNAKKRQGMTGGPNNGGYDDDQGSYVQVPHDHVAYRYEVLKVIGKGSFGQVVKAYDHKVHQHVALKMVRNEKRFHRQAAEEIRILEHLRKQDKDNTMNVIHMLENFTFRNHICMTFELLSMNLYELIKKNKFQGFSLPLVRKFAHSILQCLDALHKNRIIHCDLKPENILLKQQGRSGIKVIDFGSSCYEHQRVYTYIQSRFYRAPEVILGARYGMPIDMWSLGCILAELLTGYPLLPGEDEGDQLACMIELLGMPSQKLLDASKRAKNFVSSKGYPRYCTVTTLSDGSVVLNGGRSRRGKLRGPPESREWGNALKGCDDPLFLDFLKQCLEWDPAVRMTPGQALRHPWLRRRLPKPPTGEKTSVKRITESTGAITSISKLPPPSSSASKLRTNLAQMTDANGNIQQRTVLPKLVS
The series can be described thus: LanthaScreen kinase binding assay. Background: Time-resolved FRET reads energy transfer from a long-lived donor to a nearby acceptor.

Series [5] addresses T1, DYRK1B. The experiment in a line: Z'-LYTE kinase activity assay.

T1 sequence (Q9Y463 whole entry): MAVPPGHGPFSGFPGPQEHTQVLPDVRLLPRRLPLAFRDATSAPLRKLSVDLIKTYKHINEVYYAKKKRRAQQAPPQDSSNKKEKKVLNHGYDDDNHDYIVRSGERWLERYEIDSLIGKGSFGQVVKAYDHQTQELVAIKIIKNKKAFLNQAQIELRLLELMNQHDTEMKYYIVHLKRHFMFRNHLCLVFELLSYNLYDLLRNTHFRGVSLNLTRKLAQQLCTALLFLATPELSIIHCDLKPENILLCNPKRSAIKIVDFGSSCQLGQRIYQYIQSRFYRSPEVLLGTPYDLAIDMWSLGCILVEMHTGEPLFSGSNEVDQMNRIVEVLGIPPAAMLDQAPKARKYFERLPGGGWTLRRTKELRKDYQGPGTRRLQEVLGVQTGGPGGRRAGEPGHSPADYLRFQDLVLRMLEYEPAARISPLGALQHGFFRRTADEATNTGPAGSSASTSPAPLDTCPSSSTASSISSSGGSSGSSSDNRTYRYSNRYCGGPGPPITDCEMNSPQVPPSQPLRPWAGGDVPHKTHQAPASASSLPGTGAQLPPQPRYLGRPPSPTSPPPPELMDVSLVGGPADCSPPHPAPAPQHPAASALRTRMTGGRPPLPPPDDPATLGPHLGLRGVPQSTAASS
T2 sequence (P49759 whole entry): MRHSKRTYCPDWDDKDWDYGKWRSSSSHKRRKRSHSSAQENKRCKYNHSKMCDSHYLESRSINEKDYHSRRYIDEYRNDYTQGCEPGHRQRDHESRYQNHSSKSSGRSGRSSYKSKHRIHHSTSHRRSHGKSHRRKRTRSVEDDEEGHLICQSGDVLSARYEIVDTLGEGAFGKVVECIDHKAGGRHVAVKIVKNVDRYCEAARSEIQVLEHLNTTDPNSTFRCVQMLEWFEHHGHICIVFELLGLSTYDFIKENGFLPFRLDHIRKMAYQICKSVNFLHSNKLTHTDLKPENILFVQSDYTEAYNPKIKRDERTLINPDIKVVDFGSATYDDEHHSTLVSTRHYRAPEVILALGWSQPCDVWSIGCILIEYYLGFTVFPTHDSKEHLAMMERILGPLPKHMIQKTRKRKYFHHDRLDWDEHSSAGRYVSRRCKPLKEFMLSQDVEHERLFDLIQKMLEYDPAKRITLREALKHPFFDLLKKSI

Turning to `COc1ccc2c(c1)-c1c(sc3ccc(O)cc13)C2=O` [4j, 2-Hydroxy-9-methoxy-6H-benzo[b]indeno[1,2-d]thiophen-6-one], the inhibition (in general, the drop in the measured response relative to a control, in per cent) at 1 µM at DYRK1B [1] was 93%. Still for that read-out and setting: the figure for `COc1ccc2sc3c(c2c1)-c1ccccc1C3=O` [4e, 2-Methoxy-6H-benzo[b]indeno[1,2-d]thiophen-6-one] is 68%. For `COc1cccc2c1C(=O)c1sc3ccccc3c1-2` [4d, 7-Methoxy-6H-benzo[b]indeno[1,2-d]thiophen-6-one], the inhibition at 1 µM at DYRK1B [1] turned out to be 7%. The “microsomal stability in words” value in series [2] was “rapidly metabolized”.

`COc1ccc2sc3c(c2c1)-c1c(OC)cccc1C3=O` [4f, 2,10-Dimethoxy-6H-benzo[b]indeno[1,2-d]thiophen-6-one]: the inhibition at 1 µM at DYRK1B [1] was < 5%. Also, the “microsomal stability in words” value in series [2] was “rapidly metabolized”. With `O=C(c1ccccc1)c1cc2cc(O)ccc2s1` [5c], the 50% inhibitory concentration (IC50) – broadly, the midpoint of a concentration-inhibition curve – in the series with DYRK1A (read-out: IC50 for DYRK1A, benzothiophenyl-acetophenones 5, Fig. 2) was 2000 nM.

`O=C1c2ccccc2-c2c1sc1ccc(O)cc21` [4i, 2-Hydroxy-6H-benzo[b]indeno[1,2-d]thiophen-6-one]: the inhibition at 1 µM at DYRK1B [1] was found to be 89%. Regarding `COc1ccc2c(c1)C(=O)c1sc3ccc(O)cc3c1-2` [4k, 2-Hydroxy-8-methoxy-6H-benzo[b]indeno[1,2-d]thiophen-6-one], the IC50 worked out at 20 nM at CLK1 [3], 1080 nM at CLK1 [4], 186 nM at DYRK2 and 206 nM against DYRK1B [5]. The inhibition at 1 µM on DYRK1B [1] was found to be 78%. `COc1cccc2c1-c1c(sc3ccccc13)C2=O` [4a, 10-Methoxy-6H-benzo[b]indeno[1,2-d]thiophen-6-one]: in series [2], the “microsomal stability in words” value is recorded as “rapidly metabolized”. `CC(=O)c1cc2cc(O)ccc2s1` [1-(5-hydroxy-1-benzothiophen-2-yl)ethan-1-one]: the IC50 in the series on DYRK1A (read-out: IC50 DYRK1A) is 200 nM.

These data come from PMC11487425 (RSC Medicinal Chemistry, 2024).
